The target of experiment [1] is T1, adenosine A1 receptor (Rattus norvegicus, UniProt P25099).
T1 construct: from tissue
T1 sequence (P25099 1-326): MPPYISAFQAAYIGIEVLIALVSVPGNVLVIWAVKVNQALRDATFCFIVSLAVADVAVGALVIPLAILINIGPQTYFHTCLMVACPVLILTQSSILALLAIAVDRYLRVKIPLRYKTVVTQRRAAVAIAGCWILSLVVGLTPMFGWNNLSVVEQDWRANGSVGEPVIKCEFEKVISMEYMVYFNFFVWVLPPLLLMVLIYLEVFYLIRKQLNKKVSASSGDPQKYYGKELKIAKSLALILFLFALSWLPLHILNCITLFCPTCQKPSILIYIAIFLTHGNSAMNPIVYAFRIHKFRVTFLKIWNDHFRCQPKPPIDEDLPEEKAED
Description: In vitro binding to adenosine A1 receptor, [3H]-R-PIA radioligand. Particulars: for Ratio A2/A1: A2 binding Ki50 divided by A1 binding Ki50 (selectivity); for Ki: radioligand [3H]-R-PIA, read-out: A1 receptor binding (Ki50). Here is the method: (§1) Evaluation of in vitro binding to adenosine A1 and A2 receptors
(§2) The affinity of the novel compounds described in this invention for the adenosine A1 receptor was determined essentially as described in the literature using [^3 H]-R-PIA as a radioligand (Naunyn-Schmiedeberg's Archives of Pharmacology, 1980, 313, 179-187). Affinity for the A2 receptor was measured using the radioligand [^3 H]-CGS 21680 (European Journal of Pharmacology, 1989, 168, 243-246), and the values for representative compounds is given in the table below.

The target of experiment [2] is T2, A2 receptor (Rattus norvegicus, UniProt P30543).
T2 construct: from tissue
Description: In vitro binding to adenosine A2 receptor, [3H]-CGS 21680 radioligand. Particulars: radioligand [3H]-CGS 21680; read-out: A2 receptor binding (Ki50). Here is the method: as §1, §2

T2 sequence (P30543 whole entry): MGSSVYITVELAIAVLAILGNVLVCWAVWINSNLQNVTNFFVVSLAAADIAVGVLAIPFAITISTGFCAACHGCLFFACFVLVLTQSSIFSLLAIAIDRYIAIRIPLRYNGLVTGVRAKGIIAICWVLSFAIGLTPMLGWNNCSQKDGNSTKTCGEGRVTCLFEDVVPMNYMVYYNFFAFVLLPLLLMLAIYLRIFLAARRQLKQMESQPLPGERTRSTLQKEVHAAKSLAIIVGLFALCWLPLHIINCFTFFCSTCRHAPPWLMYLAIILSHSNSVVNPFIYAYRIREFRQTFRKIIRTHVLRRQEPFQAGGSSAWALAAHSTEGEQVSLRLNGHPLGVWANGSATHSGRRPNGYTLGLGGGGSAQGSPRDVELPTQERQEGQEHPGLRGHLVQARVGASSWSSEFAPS

Turning to `CN(C)Nc1nc(Cl)nc2c1ncn2[C@@H]1O[C@H](CO)[C@@H](O)[C@H]1O` [Example 3, 2-Chloro-N-(N,N-dimethylamino)adenosine], in experiment [1], the “Ratio A2/A1” value was found to be 92 and the Ki was 0.018 µM. In addition, in experiment [2], the Ki came out at 1.66 µM.

In the case of `OC[C@H]1O[C@@H](n2cnc3c(NOC4CCCC4)nc(Cl)nc32)[C@H](O)[C@@H]1O` [Example 7, 2-Chloro-N-cyclopentyloxyadenosine], in experiment [1], the “Ratio A2/A1” value was 429 and the Ki was determined as 0.0067 µM. In addition, in experiment [2], the Ki came to 2.88 µM.

In the case of `CONc1nc(Cl)nc2c1ncn2[C@@H]1O[C@H](CO)[C@@H](O)[C@H]1O` [Example 8, 2-Chloro-N-methoxyadenosine], the “Ratio A2/A1” value in experiment [1] stood at 55. The Ki in experiment [1] turned out to be 0.021 µM; in experiment [2], 1.15 µM.
